In patent US8022072B2, “Azolylmethylidenehydrazine derivative and use thereof” (Kaken Pharmaceutical Co., Ltd., priority 2007, dated 2011):
Converted amounts (≈) assume the structure as drawn.

How the values were obtained:
[1] = test system: Trichophyton mentagrophytes KD-04; experiment: Antifungal activity evaluation test, MIC, Trichophyton mentagrophytes KD-04; type: cell-based; conditions: KD04, 168 h, Sabouraud Dextrose Broth, 30° C., 7 days, visual, read-out: MIC T. men. KD-04
Procedure: (§1) The minimum inhibitory concentration (MIC) for Trichophyton mentagrophytes, Trichophyton rubrum, and Malassezia furfur was measured according to the following procedure. • Test compound solution: A test compound was dissolved in dimethyl sulfoxide (DMSO) at a concentration of 5 mg/mL as a stock solution. […] Then, as a test medium, a fungal solution of Trichophyton species was 100-fold diluted with Sabouraud Dextrose Broth (Difco), and a fungal solution of Malassezia furfur IFO-0656 was 100-fold diluted with MU medium to give each inoculum (2×10^4 cells/mL). • Measurement of MIC of Trichophyton fungi: Sabouraud Dextrose Broth (Difco) was dispensed by 100 μL to a given well of a 96 well flat microplate. Then, a test compound solution (2 μL) was added, and the mixture was thoroughly mixed with a plate mixer. A fungal solution (100 μL) was inoculated and cultured at 30° C. for 7 days. The presence or absence of the cell growth was visually observed, and the minimum medicament concentration at which the cell growth was prevented was taken as MIC (μg/mL). • Measurement of MIC of Malassezia furfur: Since the urease activity of this fungus and the fungus growth rate are co-related, MIC was evaluated by the following method using urease activity as an index. MU medium was dispensed by 100 μL to a given well of a 96 well flat microplate. Then, a test compound solution (2 μL) was added, and the mixture was thoroughly mixed with a plate mixer. A fungal solution (100 μL) was inoculated and cultured at 30° C. The culture was stopped on day 4 or 5 of culture when the color tone of the MU medium changes from yellow to red in visual observation of the fungus growth in a well free of addition of a test substance. Then the plate was stirred until the fungus became uniform, and the urease activity was measured based on the measurement of absorbance at 550 nm using a plate reader.

[2] = test system: Trichophyton mentagrophytes SM-110; experiment: Antifungal activity evaluation test, MIC, Trichophyton mentagrophytes SM-110; type: cell-based; conditions: SM110, 168 h, Sabouraud Dextrose Broth, 30° C., 7 days, visual, read-out: MIC T. men. SM-110
Procedure: as §1

[3] = test system: Trichophyton rubrum KD-101; experiment: Antifungal activity evaluation test, MIC, Trichophyton rubrum KD-101; type: cell-based; conditions: KD101, 168 h, Sabouraud Dextrose Broth, 30° C., 7 days, visual, read-out: MIC T. rub. KD-101
Procedure: as §1

[4] = test system: Trichophyton rubrum KD-107; experiment: Antifungal activity evaluation test, MIC, Trichophyton rubrum KD-107; type: cell-based; conditions: KD107, 168 h, Sabouraud Dextrose Broth, 30° C., 7 days, visual, read-out: MIC T. rub. KD-107
Procedure: as §1

[5] = test system: Malassezia furfur IFO-0656; experiment: Antifungal activity evaluation test, MIC by urease activity, Malassezia furfur IFO-0656; type: cell-based; conditions: IFO0656, 96 h, MU medium, 30° C., day 4 or 5, urease activity of 20% or below, read-out: MIC M. fur. IFO-0656
Procedure: as §1

[6] = test system: TNCB-induced dermatitis; experiment: 2,4,6-Trinitrochlorobenzene (TNCB)-induced dermatitis model, ear edema; type: in vivo, male BALB/c mouse; conditions: test compound 1 w/v % (FK506 0.1 w/v %), 20 μL applied to auricle, 24 hours after induction
Procedure: (§2) The test compound was adjusted to 1 w/v % when in use with a solvent (acetone:olive oil=1:1, v/v)) and put to use. FK506 (control substance) was adjusted to 0.1 w/v % and used.
The fur on the abdomen of male BALB/c mouse was shaved with a hair clipper, and 100 μL of 7 w/v % TNCB sensitizing liquid (solvent was acetone:olive oil=4:1, v/v) was applied. Six days after the sensitization, the thickness of the right auricle was measured with a micrometer (pre-value). After the measurement, 10 μL of 1 w/v % TNCB challenge liquid (solvent was acetone:olive oil=1:9, v/v) was applied to the inside of the right auricle to induce ear edema. About 5 minutes after the application of the challenge liquid, 20 μL of the test compound was applied to the outside of the auricle.
After 24 hours from the induction of ear edema, the thickness of the right auricle was measured by a method similar to the pre-value (post-value). The difference between the post-value and the pre-value of ear edema by each test compound was determined, based on which the inhibition rate was calculated. The activity of each test compound was calculated with the ear edema inhibition rate of FK506 as 1.0 (ear edema inhibition rate of each test compound/ear edema inhibition rate of FK506).

[7] = test system: OVA-induced dermatitis; experiment: Ovalbumin (OVA)-induced dermatitis model, ear edema; type: in vivo, male ICR mouse; parameters: key: ratio of compound's ear edema inhibition rate to FK506's (FK506 = 1.0); conditions: test compound 1 w/v % (FK506 0.1 w/v %), 20 μL applied to auricle, 24 hours after induction
Procedure: as §2
Male ICR mouse was sensitized by the administration of 0.2 mL of OVA-hydroxide aluminum gel suspension to the abdominal cavity. After 14 days from the sensitization, the thickness of the right auricle was measured with a micrometer (pre-value). After the measurement, 20 μL of 0.5 μg/mL OVA challenge liquid (solvent was physiological saline) was subcutaneously administered to the inside of the auricle to induce ear edema. About 5 minutes after the administration of the challenge liquid, 20 μL of the test compound was applied to the outside of the auricle. After 24 hours from the induction of ear edema, the thickness of the right auricle was measured by a method similar to the pre-value (post-value). The difference between the post-value and the pre-value of ear edema by each test compound was determined, based on which the inhibition rate was calculated. The activity of each test compound was calculated with the ear edema inhibition rate of FK506 as 1.0 (ear edema inhibition rate of each test compound/ear edema inhibition rate of FK506).

[8] = test system: Trichophyton mentagrophytes KD-04; experiment: Influence of keratin addition on anti-Trichophyton activity; type: cell-based; conditions: Trichophyton mentagrophytes, KD04, 168 h, 30° C., 7 days
Procedure: The MIC increase rate by the addition of keratin to a medium was measured by the following procedure. • Test compound solution: A test compound was dissolved in dimethyl sulfoxide (DMSO) at a concentration of 5 mg/mL as a stock solution. Diluting this solution with DMSO, a 2-fold dilution series was prepared. • Test strain: Trichophyton mentagrophytes KD-04 was used. Preparation of Fungal Inoculum: the Above-Mentioned Strain was suspended in 0.05% Tween 80-containing physiological saline, and adjusted to a fungus concentration of 2×10^6 cells/mL using a counting chamber. […] The physiological saline was removed, and the mixture was further washed once with physiological saline (3 mL). The physiological saline was removed, and a test compound solution (10 μL) and Sabouraud Dextrose Broth (Difco) (500 μL) were added to keratin, and the mixture was sufficiently stirred. Then, inoculum (500 μL) of T. mentagrophytes KD-04 was added, and the mixture was cultured at 30° C. for 7 days. As a comparison control, an experiment similar to the above was performed under conditions free of keratin addition.

[9] = T. mentagrophytes KD-04, free of keratin addition, read-out: MIC SDB alone
[10] = T. mentagrophytes KD-04, keratin 50 mg added, read-out: MIC SDB + keratin

| SMILES | MIC [1] | MIC [2] | MIC [3] | MIC [4] | MIC [5] | MIC [8, 9] | MIC [8, 10] | TNCB-induced dermatitis, with ear edema inhibition rate of FK506 as 1.0 [6] | OVA-induced dermatitis, with ear edema inhibition rate of FK506 as 1.0 [7] |
| --- | --- | --- | --- | --- | --- | --- | --- | --- | --- |
| CN(C)N=C(c1ccccc1OCCCCOc1ccccc1)n1ccnc1 [Compound No. 71, N′-[1-imidazol-1-yl-1-[2-(4-phenoxybutoxy)phenyl]methylidene]-N,N-dimethylhydrazine] | 0.05 µg/mL (≈ 0.132 µM) | 0.1 µg/mL (≈ 0.264 µM) | 0.05 µg/mL (≈ 0.132 µM) | 0.025 µg/mL (≈ 0.0661 µM) | 0.05 µg/mL (≈ 0.132 µM) |  |  | 0.9 | 0.9 |
| CN(C)N=C(c1sccc1OCCOc1ccccc1)n1ccnc1 [Compound No. 101, N′-[1-imidazol-1-yl-1-[3-(2-phenoxyethoxy)thiophen-2-yl]methylidene]-N,N-dimethylhydrazine] | 0.05 µg/mL (≈ 0.14 µM) | 0.2 µg/mL (≈ 0.561 µM) | 0.05 µg/mL (≈ 0.14 µM) | 0.05 µg/mL (≈ 0.14 µM) | 0.2 µg/mL (≈ 0.561 µM) |  |  | 0.8 | 1.4 |
| CCCCCOc1ccccc1C(=NN1CCCC1)n1ccnc1 [Compound No. 157, [1-imidazol-1-yl-1-(2-pentyloxyphenyl)methylidene]pyrrolidin-1-ylamine] | 0.05 µg/mL (≈ 0.153 µM) | 0.1 µg/mL (≈ 0.306 µM) | 0.05 µg/mL (≈ 0.153 µM) | 0.05 µg/mL (≈ 0.153 µM) | 0.2 µg/mL (≈ 0.613 µM) |  |  | 0.8 | 1.3 |
| c1ccc(OCCOc2ccccc2C(=NN2CCCC2)n2ccnc2)cc1 [Compound No. 161, [1-imidazol-1-yl-1-[2-(2-phenoxyethoxy)phenyl]methylidene]pyrrolidin-1-ylamine] | 0.2 µg/mL (≈ 0.531 µM) | 0.39 µg/mL (≈ 1.04 µM) | 0.1 µg/mL (≈ 0.266 µM) | 0.1 µg/mL (≈ 0.266 µM) | 0.39 µg/mL (≈ 1.04 µM) |  |  | 0.7 | 0.9 |
| C=CC[C@@H]1/C=C(\C)C[C@H](C)C[C@H](OC)[C@H]2O[C@@](O)(C(=O)C(=O)N3CCCC[C@H]3C(=O)O[C@H](/C(C)=C/[C@@H]3CC[C@@H](O)[C@H](OC)C3)[C@H](C)[C@@H](O)CC1=O)[C@H](C)C[C@@H]2OC [FK506, tacrolimus, reference compound] |  |  |  |  |  |  |  | 1.0 | 1.0 |

More lines, main results first:

| MIC [1] | MIC [2] | MIC [3] | MIC [4] | MIC [5] | MIC [8, 9] | MIC [8, 10] | SMILES | TNCB-induced dermatitis, with ear edema inhibition rate of FK506 as 1.0 [6] | OVA-induced dermatitis, with ear edema inhibition rate of FK506 as 1.0 [7] |
| --- | --- | --- | --- | --- | --- | --- | --- | --- | --- |
| 0.05 µg/mL (≈ 0.157 µM) | 0.1 µg/mL (≈ 0.314 µM) | 0.1 µg/mL (≈ 0.314 µM) | 0.05 µg/mL (≈ 0.157 µM) | 0.78 µg/mL (≈ 2.45 µM) |  |  | CN(C)N=C(c1ccccc1CCc1ccccc1)n1ccnc1 [Compound No. 6, N′-[1-imidazol-1-yl-1-(2-phenethylphenyl)methylidene]-N,N-dimethylhydrazine] | 0.7 | 1.4 |
| 0.05 µg/mL (≈ 0.143 µM) | 0.2 µg/mL (≈ 0.574 µM) | 0.05 µg/mL (≈ 0.143 µM) | 0.05 µg/mL (≈ 0.143 µM) | 0.2 µg/mL (≈ 0.574 µM) |  |  | CN(C)N=C(c1ccccc1CCCOc1ccccc1)n1ccnc1 [Compound No. 9, N′-[1-imidazol-1-yl-1-[2-(3-phenoxypropyl)phenyl]methylidene]-N,N-dimethylhydrazine] | 0.7 | 1.2 |
| 0.2 µg/mL (≈ 0.571 µM) | 0.39 µg/mL (≈ 1.11 µM) | 0.05 µg/mL (≈ 0.143 µM) | 0.05 µg/mL (≈ 0.143 µM) | 0.39 µg/mL (≈ 1.11 µM) | 0.1 µg/mL (≈ 0.285 µM) | 0.2 µg/mL | COc1ccc(COc2ccccc2C(=NN(C)C)n2ccnc2)cc1 [Compound No. 52, N′-[1-imidazol-1-yl-1-[2-(4-methoxybenzyloxy)phenyl]methylidene]-N,N-dimethylhydrazine] | 0.7 | 1.1 |
| 0.1 µg/mL (≈ 0.285 µM) | 0.2 µg/mL (≈ 0.571 µM) | 0.1 µg/mL (≈ 0.285 µM) | 0.05 µg/mL (≈ 0.143 µM) | 0.39 µg/mL (≈ 1.11 µM) | 0.05 µg/mL (≈ 0.143 µM) | 0.1 µg/mL | CN(C)N=C(c1ccccc1OCCOc1ccccc1)n1ccnc1 [Compound No. 66, N′-[1-imidazol-1-yl-1-[2-(2-phenoxyethoxy)phenyl]methylidene]-N,N-dimethylhydrazine] | 0.8 | 1.1 |
| 0.2 µg/mL (≈ 0.549 µM) | 0.39 µg/mL (≈ 1.07 µM) | 0.1 µg/mL (≈ 0.274 µM) | 0.05 µg/mL (≈ 0.137 µM) | 0.2 µg/mL (≈ 0.549 µM) |  |  | CCN(C)N=C(c1ccccc1OCCOc1ccccc1)n1ccnc1 [Compound No. 114, N-ethyl-N′-[1-imidazol-1-yl-1-[2-(2-phenoxyethoxy)phenyl]methylidene]-N-methylhydrazine] | 0.7 | 0.9 |
